Data reported in patent publication US11214803B2, “Modulators of YAP1 expression” (Ionis Pharmaceuticals, Inc., priority 2019, dated 2022).
Strand notation (5' to 3'): a small letter for the sugar, then the base; units joined by * are phosphorothioate-linked, units joined directly phosphodiester-linked; [ ] holds rarer units or linkages, { } end groups; capitals alone tell only the bases. k = constrained ethyl (cEt); [5mC] = 5-methylcytosine; d = 2'-deoxy (DNA)

Legend:
[1] = system: Yap1 mRNA; assay: Antisense inhibition of human Yap1 in A-431 cells by cEt gapmers, single dose (Example 3, RTS36584); format: cell-based
Procedure, shortened: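 Single-dose free-uptake screen of 3-10-3 cEt gapmers in A-431 cells at 2,000 nM over about 48 h. Values are % untreated control Yap1 mRNA.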

[2] = system: Yap1 mRNA; assay: Dose-dependent inhibition of human Yap1 in A-431 cells (Example 8, 10,000 cells per well, RTS4814); format: cell-based; conditions: for Yap1 mRNA, % UTC: A-431 cells, 10,000 cells per well; for IC50 / % UTC (Yap1 mRNA): A-431 cells
Procedure, shortened: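 Yap1 mRNA, normalized to RIBOGREEN total RNA and expressed as % untreated control, was read with RTS4814 about 48 h after free-uptake oligonucleotide treatment of A-431 cells at 10,000 cells/well. IC50 derived by linear regression of log/linear data.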

[3] = Table 34, Yap1 mRNA as percent of untreated control, 3-10-3 cEt gapmers targeting SEQ ID NO: 1 and 2, single dose
[4] = 31.3 nM, free uptake, approximately 48 hours, RTS4814
[5] = 125.0 nM, free uptake, approximately 48 hours, RTS4814
[6] = 500.0 nM, free uptake, approximately 48 hours, RTS4814
[7] = 2000.00 nM, free uptake, approximately 48 hours, RTS4814
[8] = free uptake, approximately 48 hours, RTS4814, linear regression on log/linear plot
[9] = Table 35, Yap1 mRNA as percent of untreated control, 3-10-3 cEt gapmers targeting SEQ ID NO: 1 and 2, single dose
[10] = Table 26, Yap1 mRNA by 3-10-3 cEt gapmers targeting SEQ ID NO.: 1, and 2, percent of untreated control
[11] = Table 27, Yap1 mRNA by 3-10-3 cEt gapmers targeting SEQ ID NO.: 1, and 2, percent of untreated control
[12] = Table 28, Yap1 mRNA as percent of untreated control, 3-10-3 cEt gapmers targeting SEQ ID NO.: 1, and 2
[13] = Table 29, Yap1 mRNA as percent of untreated control, 3-10-3 cEt gapmers targeting SEQ ID NO.: 1, and 2

Substance | YAP1 (% UTC) [1, 3] [% UTC] | Yap1 mRNA, % UTC [2, 4] [% UTC] | Yap1 mRNA, % UTC [2, 5] [% UTC] | Yap1 mRNA, % UTC [2, 6] [% UTC] | Yap1 mRNA, % UTC [2, 7] [% UTC] | IC50 [2, 8] [nM] | YAP1 (% UTC) [1, 9] [% UTC] | % UTC (Yap1 mRNA) ([2]; 31.3 nM) [% UTC] | % UTC (Yap1 mRNA) ([2]; 125.0 nM) [% UTC] | % UTC (Yap1 mRNA) ([2]; 500.0 nM) [% UTC] | % UTC (Yap1 mRNA) ([2]; 2000.00 nM) [% UTC] | IC50 ([2]; Yap1 mRNA) [nM] | YAP1 (% UTC) [1, 10] [% UTC] | YAP1 (% UTC) [1, 11] [% UTC] | YAP1 (% UTC) [1, 12] [% UTC] | YAP1 (% UTC) [1, 13] [% UTC]
1074484 (kT*k[5mC]*kA*d[5mC]*dT*dA*dA*dT*dA*dT*dG*dG*dT*k[5mC]*kA*kT; antisense) [compound 1074484] | 3 | 43 | 12 | 5 | 3 | < 20 | – | – | – | – | – | – | – | – | – | –
1074485 (kT*kT*k[5mC]*dA*d[5mC]*dT*dA*dA*dT*dA*dT*dG*dG*kT*k[5mC]*kA; antisense) [compound 1074485] | – | – | – | – | – | – | 4 | 47 | 14 | 5 | 3 | < 20 | – | – | – | –
1074508 (kG*kA*kG*dA*dG*dA*dG*d[5mC]*dA*dG*dA*dT*dA*kA*kT*k[5mC]; antisense) [compound 1074508] | – | 62 | 30 | 14 | 8 | 50 | – | – | – | – | – | – | 7 | – | – | –
1074509 (kT*kG*kT*dT*dA*dT*dG*dT*dT*dT*dG*dG*dG*kT*kG*kT; antisense) [compound 1074509] | – | 44 | 12 | 6 | 5 | < 20 | – | – | – | – | – | – | – | 5 | – | –
1074548 (kA*kT*k[5mC]*dT*dA*d[5mC]*d[5mC]*dG*dT*dA*dT*dG*d[5mC]*k[5mC]*k[5mC]*kA; antisense) [compound 1074548] | 4 | – | – | – | – | – | – | 50 | 15 | 7 | 8 | < 20 | – | – | – | –
1074549 (DNA kT*kA*kT*d[5mC]*dT*dA*d[5mC]*d[5mC]*dG*dT*dA*dT*dG*k[5mC]*k[5mC]*k[5mC]; antisense) [compound 1074549] | – | – | – | – | – | – | 6 | 67 | 31 | 12 | 7 | 100 | – | – | – | –
1074580 (DNA kA*k[5mC]*k[5mC]*dA*d[5mC]*dT*dA*dT*dA*dA*dA*dG*d[5mC]*kT*kT*kA; further chemistry not given here) [compound 1074580] | 5 | – | – | – | – | – | – | 55 | 18 | 8 | 5 | < 20 | – | – | – | –
1074606 (DNA kG*kG*kT*dA*dT*dA*dA*dT*d[5mC]*dA*dT*dG*dA*kT*kT*kA) [compound 1074606] | – | 31 | 10 | 6 | 4 | < 20 | – | – | – | – | – | – | – | – | 4 | –
1074607 (DNA kA*kA*kG*dG*dT*dA*dT*dA*dA*dT*d[5mC]*dA*dT*kG*kA*kT) [compound 1074607] | – | 45 | 22 | 10 | 5 | < 20 | – | – | – | – | – | – | – | – | – | 4
1074613 (DNA k[5mC]*kA*kT*dA*dG*d[5mC]*dT*dT*dA*dT*dA*dT*dT*kG*kA*kA; antisense) [compound 1074613] | – | – | – | – | – | – | 7 | 63 | 23 | 9 | 6 | 40 | – | – | – | –
1074638 (antisense kA*kG*kA*dT*dT*dT*dT*dG*dT*dA*dA*dT*dT*kG*kG*kG) [compound 1074638] | – | 14 | 4 | 3 | 3 | < 20 | – | – | – | – | – | – | – | – | 2 | –
1074639 (antisense kT*kA*kG*dA*dT*dT*dT*dT*dG*dT*dA*dA*dT*kT*kG*kG) [compound 1074639] | – | 46 | 18 | 7 | 5 | < 20 | – | – | – | – | – | – | – | – | – | 3
1074676 (antisense k[5mC]*kA*kA*dA*dT*dT*dA*dT*dA*dG*dG*d[5mC]*dA*k[5mC]*kT*k[5mC]) [compound 1074676] | 4 | – | – | – | – | – | – | 54 | 16 | 6 | 5 | < 20 | – | – | – | –
1074766 (kA*kT*k[5mC]*d[5mC]*d[5mC]*dA*dA*dT*dG*d[5mC]*dT*dA*d[5mC]*k[5mC]*k[5mC]*kA; antisense) [compound 1074766] | – | 72 | 32 | 14 | 7 | 100 | – | – | – | – | – | – | – | – | 8 | –
1075052 (antisense kA*kT*kA*dT*dA*dT*dA*d[5mC]*dT*dT*dG*dA*dT*k[5mC]*k[5mC]*kA) [compound 1075052] | – | 40 | 10 | 4 | 4 | < 20 | – | – | – | – | – | – | 3 | – | – | –
1075053 (antisense kA*kA*kT*dA*dT*dA*dT*dA*d[5mC]*dT*dT*dG*dA*kT*k[5mC]*k[5mC]) [compound 1075053] | – | 61 | 24 | 8 | 5 | 40 | – | – | – | – | – | – | – | 4 | – | –
1075055 (antisense k[5mC]*kT*kA*dT*dT*dA*dA*dG*dT*dG*dA*dG*d[5mC]*kT*kT*kT) [compound 1075055] | – | 60 | 20 | 6 | 4 | 30 | – | – | – | – | – | – | – | – | – | 4
1075061 (antisense k[5mC]*k[5mC]*kT*dT*dA*dT*dA*d[5mC]*dT*dT*dT*dT*dA*kG*k[5mC]*k[5mC]) [compound 1075061] | – | – | – | – | – | – | 5 | 58 | 23 | 9 | 6 | < 20 | – | – | – | –
1075084 (antisense kT*kG*kA*d[5mC]*dA*dA*d[5mC]*dA*dA*d[5mC]*dA*d[5mC]*dT*k[5mC]*k[5mC]*kT) [compound 1075084] | – | 103 | 72 | 37 | 14 | 300 | – | – | – | – | – | – | 9 | – | – | –
1075093 (k[5mC]*kA*kA*dA*dG*dT*dA*dA*dG*dG*dT*dA*dT*kG*kA*kG; antisense) [compound 1075093] | – | – | – | – | – | – | 3 | 74 | 26 | 7 | 4 | 100 | – | – | – | –
